Publication PMC6470589, “Contribution of Molecular Structure to Self-Assembling and Biological Properties of Bifunctional Lipid-Like 4-(N-Alkylpyridinium)-1,4-Dihydropyridines” (Pharmaceutics, 2019)

Assays:
[1] = MTT cytotoxicity assay on MH-22A tumor cells, 72 h; type: cell-based, mouse; conditions: mouse, MH-22A hepatocarcinoma cells
Protocol: (§1) Tumor cell lines HT-1080 (human connective tissue fibrosarcoma) and MH-22A (mouse hepatocarcinoma) were used. All of the cells were obtained from the American Type Culture Collection ((ATCC,) Rockville, MD, USA). HT-1080 and MH-22A cells (4 × 10^4 cell/mL) were seeded in 96-well plates in Dulbecco’s modified Eagle’s medium (DMEM) containing 10% fetal bovine serum and cultivated for 72 h at 37 °C, 5% CO2 by exposure to different compounds concentrations (100 μg/mL, 25 μg/mL, 6.25 μg/mL, and 1.56 μg/mL). Cell viability was measured using 3-(4,5-dimethylthiazol-2-yl)-2,5-diphenyl-tetrazolium bromide (MTT) assay. In brief, after incubating with compounds, the culture medium was removed and fresh medium with 0.2 mg/mL MTT was added in each well of the plate. After incubation (3 h, 37 °C, 5% CO2), the medium with MTT was removed, and 200 μL of DMSO was added at once to each sample. The samples were tested at 540 nm on a Tecan multiplate reader Infinite1000 (Tecan Austria GmbH, Salzburg, Austria). The IC50 was calculated using the program Graph Pad Prism® 3.0.

[2] = MTT cytotoxicity assay on HT-1080 tumor cells, 72 h; type: cell-based, human; conditions: human, HT-1080 fibrosarcoma cells
Protocol: as §1

[3] = Determination of critical aggregation concentration (CAC) by DLS; type: physicochemical; conditions: aqueous media
Protocol: The critical aggregation concentrations (CAC) of 4-(N-alkylpyridinium)-1,4-DHP derivatives were determined in aqueous media using a Zetasizer Nano S90 (Malvern Panalytical Ltd., Malvern, UK) instrument with Malvern Instruments Ltd. Software according to procedure described by Topel et al. and modified by our group. Briefly, as stock solutions of tested compounds were used, samples were prepared for self-assembling experiments. All of the subsequent samples were prepared starting from the concentrated stock solution, which was subjected to a serial two-fold dilution each time with water. The intensity values of scattered light (kcps) as a function of concentration of amphiphiles were analysed. The scattering intensities detected for amphiphile concentrations below CAC have an approximately constant value corresponding to water. The intensity starts to show a linear increase with concentration at the CAC, since the amount of nanoparticles increases in the solution. The intersection of the best-fit lines drawn through the data points is the preliminary CAC value of the compounds.

[4] = system: Bacillus subtilis subsp. spizizenii; assay: Toxicity screen, serial dilution-spot test; type: cell-based; conditions: gram positive; 24 h exposure in DI water, 28 °C; 0.0001 = no colonies at 0.001 mM;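 note: last dilution that did not fully inhibit growth with colonies still present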
Protocol: (§2) An estimation of the toxicity of 4-(N-alkylpyridinium)-1,4-DHP derivatives 3, 6, 7, and 9–11 was performed using six prokaryotic (bacteria) and one eukaryotic (yeast) microorganism species according to the procedure elaborated by Suppi et al.. The microorganisms used in the study and their origin were: Bacillus subtilis subsp. spizizenii (ATCC® 6633™*, Microbiologics®, St Cloud, MN, USA), Escherichia coli (ATCC® 8739, Microbiologics®), Klebsiella pneumoniae (Latvian Microorganisms strain collection, LMKK, strain number 535, Riga, Latvia), Micrococcus luteus (LMKK, No. 25), Pseudomonas aeruginosa (NCTC 12924, Biosciences Ltd., Dublin, Ireland), Proteus mirabilis (LMKK, No 590), and Saccharomyces cerevisiae, CEN.PK2 strain [32].
(§3) Bacteria and yeast cultures were cultivated until their exponential growth phase (optical density max 1); then, 100 µL of cell suspension was taken, washed in deionised (DI) water, and added to serially diluted samples of corresponding 4-(N-alkylpyridinium)-1,4-DHPs in DI water. All 1,4-DHPs were tested in five serially diluted concentrations (10 mM, 1 mM, 0.1 mM, 0.01 mM, and 0.001 mM). Test organisms were exposed to 1,4-DHP derivatives in DI water on 96-well microplates (Corning, Corning, NY, USA) at 28 °C for 24 h without shaking in the dark. Then, a 5 µL sample was taken from each well and spotted on yeast extract, bactopeptone, dextrose broth (YPD) (yeast extract 1%, bactopeptone 2%, glucose 2% and agar 2%) plates to test the growth of yeasts and lysogeny broth (LB) (yeast extract 0.5%, bactopeptone 1%, NaCl 0.5% and agar 2%) to test the growth for bacteria. Plates were left in 30 °C for 24 h, and assessed for microbial growth.
(§4) If there were no colonies after incubation with 1,4-DHPs in the last concentration of (0.001 mM), then their boundary concentration was set to 0.0001 mM or 0.1 µM.

[5] = system: Micrococcus luteus; assay: Toxicity screen, serial dilution-spot test; type: cell-based; conditions: gram positive; 24 h exposure in DI water, 28 °C; 0.0001 = no colonies at 0.001 mM;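 note: last dilution that did not fully inhibit growth with colonies still present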
Protocol: as §2, §3, §4

[6] = system: Proteus mirabilis; assay: Toxicity screen, serial dilution-spot test; type: cell-based; conditions: gram negative; 24 h exposure in DI water, 28 °C; 0.0001 = no colonies at 0.001 mM;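 note: last dilution that did not fully inhibit growth with colonies still present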
Protocol: as §2, §3, §4

[7] = system: Saccharomyces cerevisiae, CEN.PK2 strain; assay: Toxicity screen, serial dilution-spot test; type: cell-based; conditions: yeast; 24 h exposure in DI water, 28 °C; 0.0001 = no colonies at 0.001 mM;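 note: last dilution that did not fully inhibit growth with colonies still present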
Protocol: as §2, §3, §4

[8] = system: Pseudomonas aeruginosa; assay: Toxicity screen, serial dilution-spot test; type: cell-based; conditions: gram negative; 24 h exposure in DI water, 28 °C; 0.0001 = no colonies at 0.001 mM;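 note: last dilution that did not fully inhibit growth with colonies still present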
Protocol: as §2, §3, §4

[9] = system: Klebsiella pneumoniae; assay: Toxicity screen, serial dilution-spot test; type: cell-based; conditions: gram negative; 24 h exposure in DI water, 28 °C; 0.0001 = no colonies at 0.001 mM;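 note: last dilution that did not fully inhibit growth with colonies still present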
Protocol: as §2, §3, §4

[10] = system: Escherichia coli; assay: Toxicity screen, serial dilution-spot test; type: cell-based; conditions: gram negative; 24 h exposure in DI water, 28 °C; 0.0001 = no colonies at 0.001 mM;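 note: last dilution that did not fully inhibit growth with colonies still present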
Protocol: as §2, §3, §4

[11] = system: MH-22A (mouse hepatocarcinoma) cells; assay: MTT cytotoxicity assay on MH-22A tumor cells, 72 h; type: cell-based; conditions: MTT, 72 h; ne = no effect in the tested concentration (up to 100 μg/mL)
Protocol: as §1

[12] = MTT, 72 h, ne = no effect in the tested concentration (up to 100 μg/mL), read-out: Cytotoxicity IC50, MH-22A
[13] = MTT, 72 h, ne = no effect in the tested concentration (up to 100 μg/mL), read-out: Cytotoxicity IC50, HT-1080

| Compound | IC50 at 72 h [1, 12] [µM] | IC50 at 72 h [2, 13] [µM] | CAC [3] [µM] | Boundary concentration, B. subtilis [4] [mM] | Boundary concentration, M. luteus [5] [mM] | Boundary concentration, P. mirabilis [6] [mM] | Boundary concentration, S. cerevisiae [7] [mM] | Boundary concentration, P. aeruginosa [8] [mM] | Boundary concentration, K. pneumoniae [9] [mM] | Boundary concentration, E. coli [10] [mM] | IC50 [11] [µM] | Cytotoxicity IC50, MH-22A [11] | IC50 at 72 h ([1]; as printed in the supplementary toxicity table, read-out: Cytotoxicity, IC50, MH-22A (supplementary table, for comparison)) [µM] | IC50 at 72 h ([2]; as printed in the supplementary toxicity table, read-out: Cytotoxicity, IC50, HT-1080 (supplementary table, for comparison)) [µM] |
| --- | --- | --- | --- | --- | --- | --- | --- | --- | --- | --- | --- | --- | --- | --- |
| CCCCCCCCCCCC[n+]1cccc(C2C(C(=O)OCC)=C(C)NC(C)=C2C(=O)OCC)c1 [Compound 3] | 15 ± 1 | 37 ± 2 | 9.3 | 0.01 | 0.001 | 0.001 | 0.001 | 0.01 | 0.1 | 0.01 | – | – | – | – |
| C#CCN1C(C)=C(C(=O)OCC)C(c2ccc[n+](CCCCCCCCCCCC)c2)C(C(=O)OCC)=C1C [Compound 6] | 1 to 4 | – | 43.3 | 0.0001 | 0.0001 | 1 | 0.001 | 0.01 | 0.1 | 0.001 | 1 ± 0.2 | – | – | – |
| C#CCOC(=O)C1=C(C)NC(C)=C(C(=O)OCC#C)C1c1ccc[n+](CC)c1 [Compound 7] | – | – | – | 0.1 | 0.001 | 0.1 | 1 | 0.01 | 10 | 1 | – | did not demonstrate any cytotoxic effect and ne | 1000 | 1000 |
| C#CCOC(=O)C1=C(C)NC(C)=C(C(=O)OCC#C)C1c1ccc[n+](CCCCCCCCCCCC)c1 [Compound 9] | 1 to 4 | 1 to 4 | 9.3 | 0.01 | 0.0001 | 0.01 | 0.0001 | 0.01 | 0.1 | 0.0001 | 1 ± 0.2 | – | – | – |
